Assay results reported in patent US20160378909A1, “PROCESS FOR IDENTIFYING CULTURE CONDITIONS FOR A CELL OR ORGANISM” (GLAXOSMITHKLINE BIOLOGICALS SA, priority 2013, published 2016).
Where two headings read alike, the source gives them in different places.

Test system: Bordetella pertussis
Assay: microbe, parasite or virus in culture
Type: cell-based
Conditions: for Effect on growth rate in comparison to a minimally identified medium: no concentration stated
Description: Cells were harvested by centrifugation, washed twice with NaCl 0.9% (w/v), and resuspended in fresh medium (de novo minimal CDM; see composition in Table 1) at a theoretical OD650 nm of 0.5, as calculated from the OD650 nm of the culture before harvest. 20 μl of this cell suspension were used to inoculate each well of a 96-well microtiter plate filled with 180 μl of de novo minimal CDM. Only the inner wells of the plate were used for cultures, in order to minimize evaporation, and two controls were included, in which the supplement solution was replaced with water.
The plate was then incubated for 7 days at 35° C. in a Biotek Synergy H1 reader with constant shaking, and growth was automatically monitored every 10 minutes as OD650 nm.
The relative growth yield and growth rate for each supplement was then averaged over the three independent repeats, and the standard deviation was calculated.

[1] = Bordetella pertussis, 168 h, read-out: Relative yield Average, 0.1 mg/L in medium, max OD650 nm relative to water controls
[2] = Bordetella pertussis, 168 h, read-out: Relative yield Average, 1 mg/L in medium, max OD650 nm relative to water controls
[3] = Bordetella pertussis, read-out: Relative growth rate Average, 0.1 mg/L in medium, first generation, relative to water controls
[4] = Bordetella pertussis, read-out: Relative growth rate Average, 1 mg/L in medium, first generation, relative to water controls
[5] = 10 mg/L in medium, first generation, relative to water controls
[6] = 10 mg/L in medium, max OD650 nm relative to water controls
[7] = Bordetella pertussis, read-out: Relative growth rate Average, 0.2 mg/L in medium, first generation, relative to water controls
[8] = 2 mM in medium, max OD650 nm relative to water controls
[9] = Bordetella pertussis, 168 h, read-out: Relative yield Average, 2 mM in medium, max OD650 nm relative to water controls
[10] = Bordetella pertussis, read-out: Relative growth rate Average, 2 mM in medium, first generation, relative to water controls
[11] = Bordetella pertussis, 168 h, read-out: Relative yield Average, 20 mM in medium, max OD650 nm relative to water controls
[12] = Bordetella pertussis, read-out: Relative growth rate Average, 20 mM in medium, first generation, relative to water controls

## N[C@@H](Cc1c[nH]c2ccccc12)C(=O)O [L-Tryptophane]
Bordetella pertussis, 168 h, read-out: Relative yield Average, 0.518 mM in medium, max OD650 nm relative to water controls
  activity at 518 µM: > 105%
Bordetella pertussis, 168 h, read-out: Relative yield Average, 5.18 mM in medium, max OD650 nm relative to water controls
  activity at 5180 µM: 95 to 105%
Bordetella pertussis, read-out: Relative growth rate Average, 0.518 mM in medium, first generation, relative to water controls
  activity at 518 µM: 95 to 105%

## Nc1ncnc2nc[nH]c12 [Adenine]
[1]
  activity at 0.1 µg/mL: 95 to 105%
[2]
  activity at 1 µg/mL: 95 to 105%
[3]
  activity at 0.1 µg/mL: 95 to 105%
[4]
  activity at 1 µg/mL: 95 to 105%

## Calcium pantothenate
1 mg/L in medium, first generation, relative to water controls
  Relative growth rate Average: 102.18%
1 mg/L in medium, max OD650 nm relative to water controls
  Relative yield Average: 106.59%
[5]
  Relative growth rate Average: 102.47%
[6]
  Relative yield Average: 98.99%

## Cc1ncc(CO)c(CO)c1O [Pyridoxine]
Bordetella pertussis, 168 h, read-out: Relative yield Average, 0.2 mg/L in medium, max OD650 nm relative to water controls
  activity at 0.2 µg/mL: 95 to 105%
Bordetella pertussis, 168 h, read-out: Relative yield Average, 2 mg/L in medium, max OD650 nm relative to water controls
  activity at 2 µg/mL: 95 to 105%
[7]
  activity at 0.2 µg/mL: 95 to 105%
Bordetella pertussis, read-out: Relative growth rate Average, 2 mg/L in medium, first generation, relative to water controls
  activity at 2 µg/mL: 95 to 105%

## C[C@H](O)C(=O)[O-].[Na+] [Sodium L-Lactate]
5 mM in medium, first generation, relative to water controls
  Relative growth rate Average: 128.73%
5 mM in medium, max OD650 nm relative to water controls
  Relative yield Average: 100.70%
50 mM in medium, first generation, relative to water controls
  Relative growth rate Average: 103.33%
50 mM in medium, max OD650 nm relative to water controls
  Relative yield Average: 192.99%

## O=C([O-])/C=C/C(=O)[O-].[Na+].[Na+] [Disodium Fumarate]
2 mM in medium, first generation, relative to water controls
  Relative growth rate Average: 97.72%
[8]
  Relative yield Average: 107.14%
20 mM in medium, first generation, relative to water controls
  Relative growth rate Average: 86.72%
20 mM in medium, max OD650 nm relative to water controls
  Relative yield Average: 171.26%

## CC(C)[C@H](N)C(=O)O [L-Valine]
[9]
  activity at 2000 µM: 95 to 105%
[10]
  activity at 2000 µM: < 95%

## Cc1cc2nc3c(=O)[nH]c(=O)nc-3n(C[C@H](O)[C@H](O)[C@H](O)CO)c2cc1C [Riboflavin]
Bordetella pertussis, 168 h, read-out: Relative yield Average, 0.3 mg/L in medium, max OD650 nm relative to water controls
  activity at 0.3 µg/mL: 95 to 105%
Bordetella pertussis, 168 h, read-out: Relative yield Average, 3 mg/L in medium, max OD650 nm relative to water controls
  activity at 3 µg/mL: 95 to 105%
Bordetella pertussis, read-out: Relative growth rate Average, 0.3 mg/L in medium, first generation, relative to water controls
  activity at 0.3 µg/mL: > 105%
Bordetella pertussis, read-out: Relative growth rate Average, 3 mg/L in medium, first generation, relative to water controls
  activity at 3 µg/mL: 95 to 105%

## N[C@@H](Cc1ccc(O)cc1)C(=O)O [L-Tyrosine]
Bordetella pertussis, 168 h, read-out: Relative yield Average, 0.0221 mM in medium, max OD650 nm relative to water controls
  activity at 22.1 µM: 95 to 105%
Bordetella pertussis, 168 h, read-out: Relative yield Average, 0.221 mM in medium, max OD650 nm relative to water controls
  activity at 221 µM: 95 to 105%
Bordetella pertussis, read-out: Relative growth rate Average, 0.0221 mM in medium, first generation, relative to water controls
  activity at 22.1 µM: 95 to 105%
Bordetella pertussis, read-out: Relative growth rate Average, 0.221 mM in medium, first generation, relative to water controls
  activity at 221 µM: < 95%

## Cl.NCCCC[C@H](N)C(=O)O [L-Lysine HCl]
[9]
  activity at 2000 µM: > 105%
[10]
  activity at 2000 µM: < 95%

## N[C@@H](CC(=O)O)C(=O)O [L-Aspartate]
0.225 mM in medium, first generation, relative to water controls
  Relative growth rate Average: 96.87%
0.225 mM in medium, max OD650 nm relative to water controls
  Relative yield Average: 106.30%
2.25 mM in medium, first generation, relative to water controls
  Relative growth rate Average: 72.32%
2.25 mM in medium, max OD650 nm relative to water controls
  Relative yield Average: 99.74%

## CC[C@H](C)[C@H](N)C(=O)O [L-Isoleucine]
[9]
  activity at 2000 µM: < 95%
[11]
  activity at 20000 µM: < 95%
[10]
  activity at 2000 µM: < 95%
  Effect on growth rate in comparison to a minimally identified medium: negative effect

## Nc1nc(=O)c2nc(CNc3ccc(C(=O)N[C@@H](CCC(=O)O)C(=O)O)cc3)cnc2[nH]1 [Folate]
Bordetella pertussis, 168 h, read-out: Relative yield Average, 0.12 mg/L in medium, max OD650 nm relative to water controls
  activity at 0.12 µg/mL: > 105%
Bordetella pertussis, 168 h, read-out: Relative yield Average, 1.2 mg/L in medium, max OD650 nm relative to water controls
  activity at 1.2 µg/mL: 95 to 105%
Bordetella pertussis, read-out: Relative growth rate Average, 0.12 mg/L in medium, first generation, relative to water controls
  activity at 0.12 µg/mL: 95 to 105%
Bordetella pertussis, read-out: Relative growth rate Average, 1.2 mg/L in medium, first generation, relative to water controls
  activity at 1.2 µg/mL: 95 to 105%

## Nc1nc2nc[nH]c2c(=O)[nH]1 [Guanine]
[1]
  activity at 0.1 µg/mL: 95 to 105%
[2]
  activity at 1 µg/mL: 95 to 105%
[3]
  activity at 0.1 µg/mL: 95 to 105%
[4]
  activity at 1 µg/mL: 95 to 105%

## NC(=O)c1ccc[n+]([C@@H]2O[C@H](COP(=O)([O-])OP(=O)(O)OC[C@H]3O[C@@H](n4cnc5c(N)ncnc54)[C@H](O)[C@@H]3O)[C@@H](O)[C@H]2O)c1 [NAD]
[5]
  Relative growth rate Average: 100.14%
[6]
  Relative yield Average: 100.15%
100 mg/L in medium, first generation, relative to water controls
  Relative growth rate Average: 97.38%
100 mg/L in medium, max OD650 nm relative to water controls
  Relative yield Average: 104.61%

## O=P([O-])([O-])O.[Na+].[Na+] [Na2HPO4]
1 mM in medium, first generation, relative to water controls
  Relative growth rate Average: 99.98%
10 mM in medium, first generation, relative to water controls
  Relative growth rate Average: 101.26%

## NCC(=O)O [Glycine]
[9]
  activity at 2000 µM: 95 to 105%
[10]
  activity at 2000 µM: > 105%
[12]
  activity at 20000 µM: > 105%

## O=C([O-])O.[Na+] [NaHCO3]
[8]
  Relative yield Average: 102.33%

## N[C@@H](CO)C(=O)O [L-Serine]
[9]
  activity at 2000 µM: < 95%
[11]
  activity at 20000 µM: < 95%
[10]
  activity at 2000 µM: 95 to 105%

## NC(=O)CC[C@H](N)C(=O)O [L-Glutamine]
[9]
  activity at 2000 µM: 95 to 105%
[11]
  activity at 20000 µM: > 105%
[10]
  activity at 2000 µM: 95 to 105%
[12]
  activity at 20000 µM: < 95%

## N=C(N)NCCC[C@H](N)C(=O)O [L-Arginine]
[9]
  activity at 2000 µM: > 105%
[10]
  activity at 2000 µM: > 105%
[12]
  activity at 20000 µM: > 105%
  Effect on growth rate in comparison to a minimally identified medium: positive effect

## O=C(O)CCCC[C@@H]1SC[C@@H]2NC(=O)N[C@@H]21 [Biotin]
Bordetella pertussis, read-out: Relative growth rate Average, 0.02 mg/L in medium, first generation, relative to water controls
  activity at 0.02 µg/mL: > 105%
[7]
  activity at 0.2 µg/mL: 95 to 105%

## N[C@@H](Cc1c[nH]cn1)C(=O)O [L-Histidine]
[9]
  activity at 2000 µM: 95 to 105%
[11]
  activity at 20000 µM: < 95%
[10]
  activity at 2000 µM: > 105%
[12]
  activity at 20000 µM: > 105%
